Read-outs that look alike come from different tables or passages of the source.
System: Guinea-pig ileum muscle
Assay: Antispasmodic activity: reduction of the acetylcholine contraction of isolated ileum in a gut bath
Format: cell-based
Procedure: Antispasmodic activity was determined using standard methodology. (d) Guinea-pig ileum muscle was suspended in a gut bath, in oxygenated Tyrode's solution at 37°. Doses of acetylcholine were added to the gut bath fluid, the contraction recorded, and the bath washed out with fresh Tyrode's solution. This was carried out repeatedly to establish a dose of acetylcholine to cause a sub-maximal response. This dose of acetylcholine was used repeatedly, on a 2 minute cycle to establish steady responses. Doses of antispasmodic were then added 30 seconds before the acetylcholine dose to establish the magnitude of reduction of the acetylcholine contraction.

CN1C2CCC1CC(OC(=O)C(CO)c1ccccc1)C2 (racemic) [atropine sulphate, reference compound]
equivalent amount for antispasmodic activity: 0.06 ng

CCN(CCCc1ccccc1)CCCc1ccc(O)cc1 [compound (II), N-ethyl, N-(3-phenylpropyl), 3-(4-hydroxyphenyl)-propylamine]
equivalent amount for antispasmodic activity (equi-active amounts of the amine hydrochloride and atropine sulphate, acetylcholine contraction, oxygenated Tyrode's solution at 37°): 1.5 ng | antispasmodic activity times less than the standard (relative to atropine sulphate as standard, acetylcholine contraction, oxygenated Tyrode's solution at 37°, antispasmodic added 30 seconds before the acetylcholine dose): approximately 25 times

— patent EP0542837B1, “PROPYLAMINE DERIVATIVES” (NORGINE LIMITED, priority 1990, dated 1992)
